Here are results for two compounds from US12303518B2, “System for providing birth control” (The Population Council, Inc., priority 2019, dated 2025).

Each structure is given as a SMILES string. Read-outs that look alike come from different tables or passages of the source. Where only a bound is given, the exact number is not on record here.

The nature of data set [1]: Recoverable SA and EE after storage. It is filed as physicochemical. The following applies: for amount recoverable from the vaginal system: 24 months of storage at 25° C. and 60% relative humidity. Here is the method:
This was quite surprising as a similar trend was not observed during long-term stability studies on the cores before assembly.
• Diluent: methanol/water 58/42 v/v • Dried NES and EE before weighing (100-105° C. 3 h) • EE stock solution: Dissolved 25.0 mg of EE and diluted to 250.0 mL with methanol (duplicates, EE1 and EE2) • NES stock solution: Dissolved 50.0 mg of NES and diluted to 100.0 mL with methanol (duplicates, NES1 and NES2) • Standard solutions: • S1: Diluted 5.0 mL of NES1 and 4.0 mL of EE1 to 50.0 mL with diluent • S2: Diluted 6.0 mL of NES2 and 5.0 mL of EE2 to 50.0 mL with diluent • S3: Diluted 8.0 mL of NES1 and 7.0 mL of EE1 to 50.0 mL with diluent • S4: Diluted 10.0 mL of NES2 and 9.0 mL of EE2 to 50.0 mL with diluent • System suitability solution (SST solution): Diluted 5.0 mL acetone+7.0 mL NES1+6.0 mL EE1 to 50.0 mL with diluent. Extraction Procedure: • Rings were cut into 8 pieces and each piece was divided lengthwise then transferred to an Erlenmeyer flask. • 140 mL of acetone (weight of flask was noted before and after acetone addition) was added to the flask. […] Liquid Chromatography Column • analytical column: Discovery C8, 5 μm, 150×4.6 mm (Supelco) • pre-column: Supelguard, Discovery C8, 5 μm, 20×4.0 mm (Supelco) • stationary phase: endcapped C8 (5 μm particle size) USP L7 • temperature: 30° C. • Mobile phase: methanol/water 58/42, isocratic elution • Flow rate: 1.2 mL/min • Detection (assay): NES UV 240 nm, EE UV 280 nm • Detection (identity): PDA (photodiode array detector) scanning 220-310 nm, NES 240 nm, EE 280 nm • Injection: 20 μL • Run time: 15 min • System suitability: SST solution • Area precision (n=5): RSD (%)≤2.0 • Peak tailing (T): 0.8≤T≤1.5 • Blank injections: No interfering peaks • Retention times: EE approximately 7 min and NES approximately 9 min • Results Assay: Report the average value of three different rings and express as mg EE/ring and mg NES/ring. • Results Content uniformity: Calculate the average value of ten different rings. […]

The nature of data set [2]: Drug-drug interaction study with vaginal miconazole formulations. The following applies: concurrent water-based vaginal miconazole cream. The data set is classed as in vivo, human. The source says:
However, the use of either the 1 day or the 3-day oil-based miconazole suppository was associated with an overall increase in exposure up to 67% for EE and 32% for SA. Considering the potential long-term effect on vaginal system performance, concurrent use of oil-based vaginal suppositories should not occur with the system's use. If there is a need to treat a vaginal condition, water-based vaginal cream or oral therapy may be used concurrently with the vaginal system.

The subject of another data set is SHBG. Briefly: Effect on serum concentrations of SHBG. The following applies: in vivo.
A short description of data set [3]: Pharmacokinetics of the vaginal system in 39 women over up to 13 product-use cycles. It is filed as in vivo. On the set-up: concentration or dose not given beside the values. The conditions noted are these: female, human, serum. The method, then:
The pharmacokinetics (PK) of the vaginal system described herein were determined in 39 women who used the system for up to 13 product-use cycles. […] Over subsequent product-use cycles, the peak serum concentrations of SA and EE declined. Serum concentration-time profiles of SA and EE for product-pse cycles 1, 3, and 13 of system use are provided in FIG. 1 and FIG. 2 with PK parameters summarized in Table 8 and Table 9.

The conditions of data set [4]: in vivo; cited from earlier work.
Data set [5] in a line: PK study in females with BMI<25 vs BMI>25 kg/m^2. The conditions noted are these: 18 females BMI<25 vs 21 females BMI>25 kg/m^2. The data set is classed as in vivo, human. The text has this: The vaginal system described herein has not been adequately evaluated in females with a body mass index of >29 kg/m2. […] Higher body weight associates with lower systemic exposure of SA and EE. In a PK study conducted in 18 females with BMI<25 (16.89-24.34) kg/m^2 and 21 females with BMI>25 (25.15-37.46) kg/m^2, up to 16% and 33% decreases in the systemic exposure (AUC0-21day) of SA and EE, respectively, were observed between the two BMI groups.

The test system of the next data set is rats. Briefly: Return to fertility study in rats with subdermal implants. It is filed as in vivo, rat. The conditions noted are these: 7 weeks after cessation of treatment. The method, then: A return to fertility study was conducted with segesterone acetate in rats, using subdermal implants releasing a dose approximately 25 times the anticipated daily vaginal human dose (based on body surface area).

A further data set deals with CYP enzymes. Put plainly: In vitro CYP inhibition/induction studies. The following applies: therapeutic dose. It is filed as in vitro ADME.
A further data set has as its system mouse. Briefly: In vivo mouse micronucleus test.
Data set [6] is described as follows: Solubility in solvents (descriptive). The data set is classed as physicochemical. The conditions noted are these: USP classification.
A further data set deals with Salmonella. Briefly: Ames/Salmonella reverse mutation assay. It is filed as cell-based.
Data set [7] deals with Chinese hamster ovary cells. Put plainly: Chromosomal aberration assay. The data set is classed as cell-based.
Data set [8] addresses T1, sex hormone-binding globulin (SHBG) (Homo sapiens, UniProt P04278).
T1 sequence (P04278 30-402): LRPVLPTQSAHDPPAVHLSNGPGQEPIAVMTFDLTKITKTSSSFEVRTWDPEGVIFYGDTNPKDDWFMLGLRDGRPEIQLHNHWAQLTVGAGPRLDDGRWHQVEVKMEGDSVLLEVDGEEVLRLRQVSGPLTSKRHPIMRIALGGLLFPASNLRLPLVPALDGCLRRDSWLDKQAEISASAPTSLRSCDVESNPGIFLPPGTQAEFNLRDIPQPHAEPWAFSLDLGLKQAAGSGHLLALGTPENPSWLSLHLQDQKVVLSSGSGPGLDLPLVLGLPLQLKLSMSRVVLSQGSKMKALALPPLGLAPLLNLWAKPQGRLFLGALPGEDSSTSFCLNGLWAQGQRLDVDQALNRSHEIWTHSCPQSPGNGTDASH
Put plainly: Binding to sex hormone-binding globulin.

In the case of `C#C[C@]1(O)CC[C@H]2[C@@H]3CCc4cc(O)ccc4[C@H]3CC[C@@]21C` [EE, 19-nor-17α-pregna-1,3,5(10)-trien-20-yne-3,17-diol], the “amount recoverable from the vaginal system” value in [1] is recorded as “decreased in a time-dependent manner”. For the same compound, the “amount recoverable from the core by extraction” value in [1] (cores before assembly, extended storage) was “full amount of EE was found to be recoverable”. For the same compound, the “change in exposure from the vaginal system” value in data set [2] was “no change in exposure”. In addition, the “effect on serum concentrations of SHBG” value in the data set with SHBG is given as “induces an increase in the serum concentrations of SHBG”. Besides, the AUC(0-t) in data set [3] (Cycle 1, mean (SD), read-out: AUC0−1 day) was 2.1 ng·h/mL; in data set [3] (Cycle 1, mean (SD), read-out: AUC0−21day) it was 22.2 ng·h/mL; in data set [3] (Cycle 3, mean (SD), read-out: AUC0−1 day) it was 0.9 ng·h/mL; in [3] (Cycle 3, mean (SD), read-out: AUC0−21day), 14.7 ng·h/mL; in [3] (Cycle 13, mean (SD), read-out: AUC0−1 day) it was 0.7 ng·h/mL; in [3] (Cycle 13, mean (SD), read-out: AUC0−21day), 9.6 ng·h/mL. The excretion route result in data set [4] was “excreted in the urine and feces as glucuronide and sulfate conjugates”. Moreover, the primary metabolic route result in [4] is “primarily metabolized by aromatic hydroxylation”. In [5], the “decrease in systemic exposure (AUC0-21day) between the two BMI groups” value is on record as not above 33%.
As for `C=C1C[C@H]2[C@@H]3CCC4=CC(=O)CC[C@@H]4[C@H]3CC[C@]2(C)[C@@]1(OC(C)=O)C(C)=O` [SA, 16-methylene-17α-acetoxy-19-nor-pregn-4-ene-3,20-dione], the “amount recoverable from the vaginal system” value in data set [1] was “remained essentially constant”. The “effects on ovulation or litter parameters” value with rats is reported as “no adverse effects on ovulation or resulting litter parameters”. For the same compound, in the data set with CYP enzymes, the “CYP enzyme inhibition or induction” value was “unlikely to inhibit or induce CYP enzymes”. The “change in exposure from the vaginal system” value in [2] is listed as “no change in exposure”. In addition, the mutagenicity/clastogenicity result (in the data set on mouse; with Salmonella; in [7]) was “neither mutagenic nor clastogenic” each time. Further, the solubility entry was “freely soluble” in [6] (acetone), “soluble” in data set [6] (ethyl acetate), “soluble” in [6] (methanol) and “slightly soluble” in data set [6] (n-hexane). For the same compound, in data set [8], the “binding affinity for sex hormone-binding globulin (SHBG)” value is reported as “negligible binding affinity”. Further, the “decrease in systemic exposure (AUC0-21day) between the two BMI groups” value in data set [5] is “up to 16%”.
